Assay results published in US12285509B2, “Glyceryl and glycol acid compounds” (MARY KAY INC., priority 2006, dated 2025).

Test: UV absorption (UV/Vis spectrometer, standard USP 197U testing procedures)
Assay type: physicochemical
Excerpt: UV absorption of glyceryl/acid or glycol/acid compounds and compositions containing the same can be determined by UV absorption assays that are generally known to those of ordinary skill in the art.

Structure (SMILES): O=C(OCC(O)CO)c1ccccc1O (centres unmarked) [Glyceryl Mono-Salicylate]
- Molar Absorptivity (λ max 238 nm) (λ max 238 nm): 12065.7
- Molar Absorptivity (λ max 307 nm) (λ max 307 nm): 6126.4
